Measurements: the supplement of paper PMC10307832

Tests used:
Experiment in all cases: relative viability (nuclei count vs DMSO), 5 days (fraction); higher = more cells survive
COR-L 105 = tested on: COR-L 105
Procedure, shortened: (§1)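 Medians of duplicate plates are given as relative viability. That measure is the nuclei count in treated wells divided by the count in vehicle wells. Counts were taken on 4× images of lung cancer cell lines in 1536-well plates, 5 days after pin-tool dosing the day after seeding with one drug alone or a fixed anchor-drug dose plus five library-drug doses (not always all listed) in √10 steps.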

LCLC-103H = tested on: LCLC-103H
Procedure, shortened: as §1

LK-2 = tested on: LK-2
Procedure, shortened: as §1

NCI-H1355 = tested on: NCI-H1355
Procedure, shortened: as §1

NCI-H1623 = tested on: NCI-H1623
Procedure, shortened: as §1

NCI-H1648 = tested on: NCI-H1648
Procedure, shortened: as §1

NCI-H520 = tested on: NCI-H520
Procedure, shortened: as §1

NCI-H522 = tested on: NCI-H522
Procedure, shortened: as §1

SMILES | relative viability (COR-L 105; first compound 0.08 µM) | relative viability (COR-L 105; first compound 0.253 µM) | relative viability (COR-L 105; first compound 0.8 µM) | relative viability (COR-L 105; first compound 2.53 µM) | relative viability (LCLC-103H; first compound 0.08 µM) | relative viability (LCLC-103H; first compound 0.253 µM) | relative viability (LCLC-103H; first compound 0.8 µM) | relative viability (LCLC-103H; first compound 2.53 µM) | relative viability (LK-2; first compound 0.08 µM) | relative viability (LK-2; first compound 0.253 µM) | relative viability (LK-2; first compound 0.8 µM) | relative viability (LK-2; first compound 2.53 µM) | relative viability (NCI-H1355; first compound 0.08 µM) | relative viability (NCI-H1355; first compound 0.253 µM) | relative viability (NCI-H1355; first compound 0.8 µM) | relative viability (NCI-H1355; first compound 2.53 µM) | relative viability (NCI-H1623; first compound 0.08 µM) | relative viability (NCI-H1623; first compound 0.8 µM) | relative viability (NCI-H1623; first compound 2.53 µM) | relative viability (NCI-H1648; first compound 0.08 µM) | relative viability (NCI-H1648; first compound 0.253 µM) | relative viability (NCI-H1648; first compound 0.8 µM) | relative viability (NCI-H1648; first compound 2.53 µM) | relative viability (NCI-H520; first compound 0.08 µM) | relative viability (NCI-H520; first compound 0.253 µM) | relative viability (NCI-H520; first compound 0.8 µM) | relative viability (NCI-H520; first compound 2.53 µM) | relative viability (NCI-H522; first compound 0.08 µM) | relative viability (NCI-H522; first compound 0.253 µM) | relative viability (NCI-H522; first compound 0.8 µM) | relative viability (NCI-H522; first compound 2.53 µM) | relative viability (COR-L 105; first compound 8 µM) | relative viability (LCLC-103H; first compound 8 µM) | relative viability (LK-2; first compound 8 µM) | relative viability (NCI-H1355; first compound 8 µM) | relative viability (NCI-H1623; first compound 0.253 µM) | relative viability (NCI-H1623; first compound 8 µM) | relative viability (NCI-H1648; first compound 8 µM) | relative viability (NCI-H520; first compound 8 µM) | relative viability (NCI-H522; first compound 8 µM)
COc1nc(C)cnc1NS(=O)(=O)c1cccnc1-c1ccc(-c2nnco2)cc1 [Zibotentan] + Cc1cc(Nc2cc(N3CCN(C)CC3)nc(Sc3ccc(NC(=O)C4CC4)cc3)n2)n[nH]1 [Tozasertib] (partner 0.1 µM) | 0.309 | 0.344 | 0.371 | 0.362 | 0.451 | 0.509 | 0.412 | 0.478 | 0.148 | 0.191 | 0.166 | 0.198 | 0.626 | 0.537 | 0.55 | 0.565 | 0.464 | 0.43 | 0.427 | 0.499 | 0.403 | 0.47 | 0.576 | 0.431 | 0.479 | 0.441 | 0.442 | 0.573 | 0.606 | 0.599 | 0.568 | – | – | – | – | – | – | – | – | –
O=c1cc(-c2cccc3c2Sc2ccccc2S3)oc(N2CCOCC2)c1 + COc1cccc2cc(-c3nc([C@H]4CC[C@H](C(=O)O)CC4)n4ncnc(N)c34)[nH]c12 [OSI-027] (partner 0.5 µM) | 0.686 | 0.707 | 0.636 | 0.686 | 0.434 | 0.489 | 0.504 | 0.481 | 0.174 | 0.189 | 0.188 | 0.175 | 0.402 | 0.376 | 0.335 | 0.338 | 0.593 | 0.346 | 0.431 | 0.264 | 0.257 | 0.277 | 0.22 | 0.297 | 0.257 | 0.297 | 0.216 | 0.765 | 0.685 | 0.722 | 0.723 | 0.734 | 0.454 | 0.176 | 0.33 | 0.447 | 0.374 | 0.252 | 0.296 | 0.803
